Measured values published in patent US11591336B2 (Relay Therapeutics, Inc., priority 2017, dated 2023).
Structures can show the parent of a compound that is named as a salt.

Molecular target: SHP2 (Homo sapiens (Human), UniProt Q06124)
Assay: SHP2 Allosteric Inhibition Assay (DiFMUP prompt fluorescence)
Format: biochemical
Conditions: 0.25 nM SHP2 activated with 0.5 μM peptide IRS1_pY1172(dPEG8)pY1222; substrate DiFMUP 100 μM; 25° C.

Compound	IC50
CC1(N)CCN(c2cnc3c(Nc4cccnc4Cl)n[nH]c3n2)CC1 [Compound 12, 6-(4-amino-4-methylpiperidin-1-yl)-N-(2-chloropyridin-3-yl)-1H-pyrazolo[3,4-b]pyrazin-3-amine]	1000 to 10000 nM
Cn1ccnc1Sc1n[nH]c2nc(N3CCC(C)(N)CC3)cnc12 [Compound 14, 4-methyl-1-(3-((1-methyl-1H-imidazol-2-yl)thio)-1H-pyrazolo[3,4-b]pyrazin-6-yl)piperidin-4-amine]	≥ 10000 nM
CC1(CN)CCN(c2cnc3c(Cc4ccccc4)n[nH]c3n2)CC1 [Compound 15, (1-(3-benzyl-1H-pyrazolo[3,4-b]pyrazin-6-yl)-4-methylpiperidin-4-yl)methanamine]	1000 to 10000 nM
CC(c1ccccc1)c1n[nH]c2nc(N3CCC(C)(CN)CC3)cnc12 (stereo not shown) [Compound 17, (4-methyl-1-(3-(1-phenylethyl)-1H-pyrazolo[3,4-b]pyrazin-6-yl)piperidin-4-yl)methanamine]	1000 to 10000 nM
CC1(CN)CCN(c2cnc3c(C(=O)c4ccccc4)n[nH]c3n2)CC1 [Compound 18, (6-(4-(aminomethyl)-4-methylpiperidin-1-yl)-1H-pyrazolo[3,4-b]pyrazin-3-yl)(phenyl)methanone]	1000 to 10000 nM
CC1(CN)CCN(c2cnc3c(C(C)(O)c4ccccc4)n[nH]c3n2)CC1 (stereo not shown) [Compound 19, 1-(6-(4-(aminomethyl)-4-methylpiperidin-1-yl)-1H-pyrazolo[3,4-b]pyrazin-3-yl)-1-phenylethanol]	1000 to 10000 nM
CC1(N)CCN(c2cnc3c(-n4cnc5ccccc54)n[nH]c3n2)CC1 [Compound 20, 1-(3-(1H-benzo[d]imidazol-1-yl)-1H-pyrazolo[3,4-b]pyrazin-6-yl)-4-methylpiperidin-4-amine]	1000 to 10000 nM
CC1(N)CCN(c2cnc3c(N4CCCc5ccncc54)n[nH]c3n2)CC1 [Compound 27]	≥ 10000 nM
CC1(N)CCN(c2cnc3c(N4CCNc5ccccc54)n[nH]c3n2)CC1 [Compound 29]	1000 to 10000 nM
CC1(N)CCN(c2cnc3c(N4CCCc5cnccc54)n[nH]c3n2)CC1 [Compound 30]	1000 to 10000 nM
C[C@@H]1CCc2ccccc2N1c1n[nH]c2nc(N3CCC(C)(N)CC3)cnc12 [Compound 36]	1000 to 10000 nM
CC1Cc2ccccc2N(c2n[nH]c3nc(N4CCC(C)(N)CC4)cnc23)C1 (stereo not shown) [Compound 38]	1000 to 10000 nM
CC1(N)CCN(c2cnc3c(N4C(=O)CCc5ncccc54)n[nH]c3n2)CC1 [Compound 39, 1-(6-(4-amino-4-methylpiperidin-1-yl)-1H-pyrazolo[3,4-b]pyrazin-3-yl)-3,4-dihydro-1,5-naphthyridin-2(1H)-one]	1000 to 10000 nM
CC1(CN)CCN(c2cnc3c(N4CCCc5cccnc54)n[nH]c3n2)CC1 [Compound 40]	1000 to 10000 nM
CC1(N)CCN(c2cnc3c(N4CCCc5c4ccnc5N)n[nH]c3n2)CC1 [Compound 42, 1-(6-(4-amino-4-methylpiperidin-1-yl)-1H-pyrazolo[3,4-b]pyrazin-3-yl)-1,2,3,4-tetrahydro-1,6-naphthyridin-5-amine]	1000 to 10000 nM
CC1(N)CCN(c2cnc3c(N4CCCn5c4cccc5=O)n[nH]c3n2)CC1 [Compound 43]	≥ 10000 nM
Cc1ccc2c(c1)N(c1n[nH]c3nc(N4CCC(C)(CN)CC4)cnc13)CCC2 [Compound 44]	1000 to 10000 nM
CC1(N)CCN(c2cnc3c(N4CCCC(c5ccccc5)C4)n[nH]c3n2)CC1 (stereo not shown) [Compound 47]	1000 to 10000 nM
CC1(CN)CCN(c2cnc3c(N4CCCc5c(F)cccc54)n[nH]c3n2)CC1 [Compound 52]	< 1000 nM

Compound	IC50
NC1CCCC12CCN(c1cnc3c(N4CCCc5ncccc54)n[nH]c3n1)CC2 (stereo not shown) [Compound 53, 8-(3-(3,4-dihydro-1,5-naphthyridin-1(2H)-yl)-1H-pyrazolo[3,4-b]pyrazin-6-yl)-8-azaspiro[4.5]decan-1-amine]	< 1000 nM
CC1(N)CCN(c2cnc3c(N4CCCc5cc(C(N)=O)ccc54)n[nH]c3n2)CC1 [Compound 54, 1-(6-(4-amino-4-methylpiperidin-1-yl)-1H-pyrazolo[3,4-b]pyrazin-3-yl)-1,2,3,4-tetrahydroquinoline-6-carboxamide]	< 1000 nM
NC1CCOC12CCN(c1cnc3c(N4CCCc5ncccc54)n[nH]c3n1)CC2 (stereo not shown) [Compound 55, 8-(3-(3,4-dihydro-1,5-naphthyridin-1(2H)-yl)-1H-pyrazolo[3,4-b]pyrazin-6-yl)-1-oxa-8-azaspiro[4.5]decan-4-amine]	< 1000 nM
CC(=O)N1CCN(c2n[nH]c3nc(N4CCC(C)(N)CC4)cnc23)c2ccccc21 [Compound 56]	< 1000 nM
COc1cccc2c1CCCN2c1n[nH]c2nc(N3CCC(C)(CN)CC3)cnc12 [Compound 57]	< 1000 nM
CC1(CN)CCN(c2cnc3c(N4CCCc5cc(C(N)=O)ccc54)n[nH]c3n2)CC1 [Compound 58, 1-(6-(4-(aminomethyl)-4-methylpiperidin-1-yl)-1H-pyrazolo[3,4-b]pyrazin-3-yl)-1,2,3,4-tetrahydroquinoline-6-carboxamide]	< 1000 nM
CC1(N)CCN(c2cnc3c(N4CCCc5c(-c6ccccn6)cccc54)n[nH]c3n2)CC1 [Compound 59]	< 1000 nM
CC1(N)CCN(c2cnc3c(N4CCCc5c(-c6cccnc6)cccc54)n[nH]c3n2)CC1 [Compound 60]	< 1000 nM
Cn1cc(-c2cccc3c2CCCN3c2n[nH]c3nc(N4CCC(C)(N)CC4)cnc23)cn1 [Compound 61]	< 1000 nM
Cn1cc(-c2ccc3c(n2)CCCN3c2n[nH]c3nc(N4CCC(C)(N)CC4)cnc23)cn1 [Compound 62]	< 1000 nM
CC1(CN)CCN(c2cnc3c(N4CCCc5cc(C(F)(F)F)ccc54)n[nH]c3n2)CC1 [Compound 63]	< 1000 nM
CC1(N)CCN(c2cnc3c(N4CCCc5c(-c6nccs6)cccc54)n[nH]c3n2)CC1 [Compound 64]	< 1000 nM
CC1(CN)CCN(c2cnc3c(N4CCCc5c(-c6ccccc6)cccc54)n[nH]c3n2)CC1 [Compound 65]	< 1000 nM
CC1(CN)CCN(c2cnc3c(N4CCCc5c(-c6cccnc6)cccc54)n[nH]c3n2)CC1 [Compound 66]	< 1000 nM
Cc1ccncc1-c1cccc2c1CCCN2c1n[nH]c2nc(N3CCC(C)(N)CC3)cnc12 [Compound 67]	< 1000 nM
CC1(CN)CCN(c2cnc3c(N4CCN(c5cccnc5)c5ccccc54)n[nH]c3n2)CC1 [Compound 68]	< 1000 nM
CC1(CN)CCN(c2cnc3c(N4CCCc5c(-c6ccc(F)cc6)cccc54)n[nH]c3n2)CC1 [Compound 69]	< 1000 nM
CC1(CN)CCN(c2cnc3c(N4CCCc5c(-c6ccc(F)c(F)c6)cccc54)n[nH]c3n2)CC1 [Compound 70]	< 1000 nM

Other lines, results leading:

IC50	Compound
< 1000 nM	CC1(N)CCN(c2cnc3c(Sc4ccccc4C#N)n[nH]c3n2)CC1 [Compound 10, 2-((6-(4-amino-4-methylpiperidin-1-yl)-1H-pyrazolo[3,4-b]pyrazin-3-yl)thio)benzonitrile]
< 1000 nM	CC1(CN)CCN(c2cnc3c(Nc4ccccc4Cl)n[nH]c3n2)CC1 [Compound 11, 6-(4-(aminomethyl)-4-methylpiperidin-1-yl)-N-(2-chlorophenyl)-1H-pyrazolo[3,4-b]pyrazin-3-amine]
< 1000 nM	CC1(N)CCN(c2cnc3c(Sc4cccc(Cl)c4Cl)n[nH]c3n2)CC1 [Compound 13, 1-(3-((2,3-dichlorophenyl)thio)-1H-pyrazolo[3,4-b]pyrazin-6-yl)-4-methylpiperidin-4-amine]
< 1000 nM	C=C(c1ccccc1)c1n[nH]c2nc(N3CCC(C)(CN)CC3)cnc12 [Compound 16, (4-methyl-1-(3-(1-phenylvinyl)-1H-pyrazolo[3,4-b]pyrazin-6-yl)piperidin-4-yl)methanamine]
< 1000 nM	CC1(N)CCN(c2cnc3c(N4CCc5ccccc54)n[nH]c3n2)CC1 [Compound 21]
< 1000 nM	CC1(N)CCN(c2cnc3c(N4CCCn5nccc54)n[nH]c3n2)CC1 [Compound 22]
< 1000 nM	CC1(CN)CCN(c2cnc3c(N4CCCc5ncccc54)n[nH]c3n2)C1 (stereo not shown) [Compound 26, (1-(3-(3,4-dihydro-1,5-naphthyridin-1(2H)-yl)-1H-pyrazolo[3,4-b]pyrazin-6-yl)-3-methylpyrrolidin-3-yl)methanamine dihydrochloride]
< 1000 nM	CC1(N)CCN(c2cnc3c(N4CCOc5ncccc54)n[nH]c3n2)CC1 [Compound 31]
< 1000 nM	CC1(N)CCN(c2cnc3c(N4CCC(=O)c5ccccc54)n[nH]c3n2)CC1 [Compound 32]
< 1000 nM	CC1(CN)CCN(c2cnc3c(N4CCCc5ccccc54)n[nH]c3n2)CC1 [Compound 33, (1-(3-(3,4-dihydroquinolin-1(2H)-yl)-1H-pyrazolo[3,4-b]pyrazin-6-yl)-4-methylpiperidin-4-yl)methanamine]
< 1000 nM	CC1CCc2ccccc2N1c1n[nH]c2nc(N3CCC(C)(N)CC3)cnc12 (stereo not shown) [Compound 34]
< 1000 nM	C[C@H]1CCc2ccccc2N1c1n[nH]c2nc(N3CCC(C)(N)CC3)cnc12 [Compound 35]
< 1000 nM	Cc1ccc2c(c1)CCCN2c1n[nH]c2nc(N3CCC(C)(CN)CC3)cnc12 [Compound 45]
< 1000 nM	Cc1cccc2c1CCCN2c1n[nH]c2nc(N3CCC(C)(CN)CC3)cnc12 [Compound 46]
< 1000 nM	CC1CCN(c2n[nH]c3nc(N4CCC(C)(CN)CC4)cnc23)c2ccccc21 (stereo not shown) [Compound 48]
< 1000 nM	C[C@@H]1CCN(c2n[nH]c3nc(N4CCC(C)(CN)CC4)cnc23)c2ccccc21 [Compound 49, (R)-(4-methyl-1-(3-(4-methyl-3,4-dihydroquinolin-1(2H)-yl)-1H-pyrazolo[3,4-b]pyrazin-6-yl)piperidin-4-yl)methanamine]
< 1000 nM	C[C@H]1CCN(c2n[nH]c3nc(N4CCC(C)(CN)CC4)cnc23)c2ccccc21 [Compound 50, (S)-(4-methyl-1-(3-(4-methyl-3,4-dihydroquinolin-1(2H)-yl)-1H-pyrazolo[3,4-b]pyrazin-6-yl)piperidin-4-yl)methanamine]
< 1000 nM	CC1(CN)CCN(c2cnc3c(N4CCCc5nc(N)ccc54)n[nH]c3n2)CC1 [Compound 51, 5-(6-(4-(aminomethyl)-4-methylpiperidin-1-yl)-1H-pyrazolo[3,4-b]pyrazin-3-yl)-5,6,7,8-tetrahydro-1,5-naphthyridin-2-amine]
